Measurements as given in US20240299359A1, “PHARMACEUTICAL COMPOSITION FOR ANIMALS CONTAINING 5-HYDROXY-METHYLIMIDAZOLIDINE-2,4-DIONE COMPOUND AS ACTIVE INGREDIENT” (KYONGBO PHARM. CO., LTD., priority 2021, published 2024).
Values joined by “and” are separate entries in the source; they are usually repeats but may differ in a detail not shown here. Equal values may be shown once.

Tested on: beagles
Experiment: 13-week repeated oral toxicity: hematological test
Type: in vivo, beagle
Procedure: Fasting was conducted the day before administration (blood test date, pre), the 4th week (day 29) after administration, the 8th week (day 57) after administration, and the 13th week (day 92) after administration, and when the remaining feed was present in the feed container 3 hours after feeding on the day of fasting, it was removed.
All subjects were fasted for 16 hours and measurements were then performed pre (before administration), 4 weeks (day 29) after administration, 8 weeks (day 57) after administration, and 13 weeks (day 92) after administration. Within 3 hours after 2 to 3 ml of blood collected from the jugular vein of each subject was injected into a CBC bottle containing EDTA, RBC, HGB, HCT, RBC indices (MCV, MCH, MCHC), and platelet count and WBC differential count were measured using an automatic hematometer.

[1] = G3 500 mg/kg, repeated administration for 13 weeks, female, group mean
[2] = G3 500 mg/kg, repeated administration for 13 weeks, female, individual animals
[3] = G3 500 mg/kg, repeated administration for 13 weeks, male, group mean
[4] = G3 500 mg/kg, repeated administration for 13 weeks, male, individual animals
[5] = G4 1,000 mg/kg group, female (F10-F12, Mean), before administration (day 0)
[6] = G4 1,000 mg/kg group, female (F10-F12, Mean), before administration (day 0), mean
[7] = G4 1,000 mg/kg group, male (M10-M12, Mean), before administration (day 0)
[8] = G4 1,000 mg/kg group, male (M10-M12, Mean), before administration (day 0), mean
[9] = G4 1,000 mg/kg, repeated administration for 13 weeks, female, group mean
[10] = G4 1,000 mg/kg, repeated administration for 13 weeks, female, individual animals
[11] = G4 1,000 mg/kg, repeated administration for 13 weeks, male, group mean
[12] = G4 1,000 mg/kg, repeated administration for 13 weeks, male, individual animals

Q: How did the MCH [1] turn out when `CN1C(=O)NC(=O)C1O` (stereo not drawn) [KBP-001, 5-hydroxy-1-methylimidazolidine-2,4-dione] was run?
A: 23.5 pg

Q: And the MCHC [1]?
A: 33.37 g/dL

Q: What about the MCV [1] of the same molecule?
A: 70.2 fL

Q: And the Retic [1]?
A: 0.59%

Q: And the “WBC Differential Counting(%) Baso” value [1]?
A: 0.43%

Q: What about the “WBC Differential Counting(%) Eos” value [1] of the same molecule?
A: 3.03%

Q: What about the “WBC Differential Counting(%) Lymph” value [1] of the same molecule?
A: 33.40%

Q: And the “WBC Differential Counting(%) Mono” value [1]?
A: 4.37%

Q: What about the “WBC Differential Counting(%) Neut” value [1] of the same molecule?
A: 58.50%

Q: What about the HCT [2] of the same molecule?
A: 42.0% and 49.4% and 52.6%

Q: And the HGB [2]?
A: 14.2 g/dL and 16.3 g/dL and 17.5 g/dL

Q: What about the MCH [2] of the same molecule?
A: 23.8 pg and 23.9 pg and 22.7 pg

Q: And the MCHC [2]?
A: 33.7 g/dL and 33.1 g/dL and 33.3 g/dL

Q: What about the MCV [2] of the same molecule?
A: 70.4 fL and 72 fL and 68.2 fL

Q: And the Retic [2]?
A: 0.84% and 0.40% and 0.53%

Q: And the “WBC Differential Counting(%) Baso” value [2]?
A: 0.3% and 0.5% and 0.4%

Q: And the “WBC Differential Counting(%) Eos” value [2]?
A: 3.2% and 2.8% and 3.1%

Q: What about the “WBC Differential Counting(%) Lymph” value [2] of the same molecule?
A: 37.9% and 30.3% and 32.0%

Q: And the “WBC Differential Counting(%) Mono” value [2]?
A: 4.3% and 3.5% and 5.2%

Q: What about the “WBC Differential Counting(%) Neut” value [2] of the same molecule?
A: 62.4%

Q: And the HCT [3]?
A: 48.10%

Q: What about the HGB [3] of the same molecule?
A: 16.27 g/dL

Q: And the MCH [3]?
A: 23.8 pg

Q: And the MCHC [3]?
A: 33.83 g/dL

Q: What about the MCV [3] of the same molecule?
A: 70.4 fL

Q: What about the Retic [3] of the same molecule?
A: 0.41%

Q: And the “WBC Differential Counting(%) Baso” value [3]?
A: 1.10%

Q: What about the “WBC Differential Counting(%) Eos” value [3] of the same molecule?
A: 5.07%

Q: And the “WBC Differential Counting(%) Lymph” value [3]?
A: 30.00%

Q: And the “WBC Differential Counting(%) Mono” value [3]?
A: 7.23%

Q: What about the “WBC Differential Counting(%) Neut” value [3] of the same molecule?
A: 55.697%

Q: What about the HCT [4] of the same molecule?
A: 42.2% and 49.5% and 52.6%

Q: What about the HGB [4] of the same molecule?
A: 14.2 g/dL and 16.9 g/dL and 17.7 g/dL

Q: And the MCH [4]?
A: 23.5 pg and 24.4 pg and 23.6 pg

Q: What about the MCHC [4] of the same molecule?
A: 33.7 g/dl (2×) and 34.1 g/dl

Q: And the MCV [4]?
A: 70 fL and 71.5 fL and 69.9 fL

Q: What about the Retic [4] of the same molecule?
A: 0.54% and 0.46% and 0.23%

Q: What about the “WBC Differential Counting(%) Baso” value [4] of the same molecule?
A: 0.3% and 0.4% and 2.6%

Q: What about the “WBC Differential Counting(%) Eos” value [4] of the same molecule?
A: 3.9% and 7.5% and 3.8%

Q: And the “WBC Differential Counting(%) Lymph” value [4]?
A: 23.4% and 27.1% and 39.5%

Q: What about the “WBC Differential Counting(%) Mono” value [4] of the same molecule?
A: 7.8% (2×) and 6.1%

Q: What about the “WBC Differential Counting(%) Neut” value [4] of the same molecule?
A: 64.3% and 56.8% and 46.8%

Q: And the HCT [5]?
A: 47.7% and 44.4% and 48.4%

Q: And the HGB [5]?
A: 16.1 g/dL and 14.9 g/dL and 16.2 g/dL

Q: What about the MCH [5] of the same molecule?
A: 22.9 pg and 23.2 pg and 22.2 pg

Q: What about the MCHC [5] of the same molecule?
A: 33.7 g/dL and 33.5 g/dL

Q: And the MCV [5]?
A: 68 fL and 69.2 fL and 66.3 fL

Q: And the Retic [5]?
A: 1.79% and 1.14% and 0.92%

Q: What about the “WBC Differential Counting Baso” value [5] of the same molecule?
A: 0.5% and 0.7% and 0.9%

Q: And the “WBC Differential Counting Eos” value [5]?
A: 3.8% and 3.2% and 2.1%

Q: And the “WBC Differential Counting Lymph” value [5]?
A: 30.9% and 31.1% and 43.6%

Q: And the “WBC Differential Counting Mono” value [5]?
A: 4.6% and 4.0% and 5.5%

Q: And the “WBC Differential Counting Neut” value [5]?
A: 59.3% and 60.5% and 47.3%

Q: What about the HCT [6] of the same molecule?
A: 39.40%

Q: What about the HGB [6] of the same molecule?
A: 13.17 g/dL

Q: And the MCH [6]?
A: 18.4 pg

Q: What about the MCHC [6] of the same molecule?
A: 25.57 g/dL

Q: And the MCV [6]?
A: 55.4 fL

Q: What about the Retic [6] of the same molecule?
A: 0.77%

Q: What about the “WBC Differential Counting Baso” value [6] of the same molecule?
A: 0.74%

Q: And the “WBC Differential Counting Eos” value [6]?
A: 3.70%

Q: What about the “WBC Differential Counting Lymph” value [6] of the same molecule?
A: 28.17%

Q: What about the “WBC Differential Counting Mono” value [6] of the same molecule?
A: 4.91%

Q: And the “WBC Differential Counting Neut” value [6]?
A: 46.85%

Q: And the HCT [7]?
A: 45.1% and 46.8% and 43.2%

Q: What about the HGB [7] of the same molecule?
A: 15.0 g/dL and 15.6 g/dL and 14.5 g/dL

Q: And the MCH [7]?
A: 22.4 pg and 22.5 pg and 21.7 pg

Q: What about the MCHC [7] of the same molecule?
A: 33.2 g/dL and 33.3 g/dL and 33.6 g/dL

Q: And the MCV [7]?
A: 67.6 fL and 67.4 fL and 64.7 fL

Q: What about the Retic [7] of the same molecule?
A: 0.51% and 0.65% and 0.56%

Q: What about the “WBC Differential Counting Baso” value [7] of the same molecule?
A: 0.8% and 0.4% and 0.7%

Q: And the “WBC Differential Counting Eos” value [7]?
A: 3.5% and 3.9% and 4.8%

Q: What about the “WBC Differential Counting Lymph” value [7] of the same molecule?
A: 34.8% and 31.7% and 35.5%

Q: And the “WBC Differential Counting Mono” value [7]?
A: 6.5% and 7.8% and 4.5%

Q: What about the “WBC Differential Counting Neut” value [7] of the same molecule?
A: 53.8% and 55.9% and 54.0%

Q: And the HCT [8]?
A: 39.19%

Q: What about the HGB [8] of the same molecule?
A: 13.07 g/dL

Q: And the MCH [8]?
A: 18.2 pg

Q: What about the MCHC [8] of the same molecule?
A: 27.30 g/dL

Q: What about the MCV [8] of the same molecule?
A: 54.9 fL

Q: What about the Retic [8] of the same molecule?
A: 0.74%

Q: And the “WBC Differential Counting Baso” value [8]?
A: 0.78%

Q: What about the “WBC Differential Counting Eos” value [8] of the same molecule?
A: 3.68%

Q: And the “WBC Differential Counting Lymph” value [8]?
A: 28.23%

Q: And the “WBC Differential Counting Mono” value [8]?
A: 5.10%

Q: And the “WBC Differential Counting Neut” value [8]?
A: 46.56%

Q: And the HCT [9]?
A: 41.40%

Q: And the HGB [9]?
A: 14.00 g/dL

Q: And the MCH [9]?
A: 23.3 pg

Q: What about the MCHC [9] of the same molecule?
A: 33.83 g/dL

Q: And the MCV [9]?
A: 68.8 fL

Q: What about the Retic [9] of the same molecule?
A: 0.36%

Q: And the “WBC Differential Counting(%) Baso” value [9]?
A: 0.40%

Q: What about the “WBC Differential Counting(%) Eos” value [9] of the same molecule?
A: 2.07%

Q: What about the “WBC Differential Counting(%) Lymph” value [9] of the same molecule?
A: 36.50%

Q: What about the “WBC Differential Counting(%) Mono” value [9] of the same molecule?
A: 4.57%

Q: What about the “WBC Differential Counting(%) Neut” value [9] of the same molecule?
A: 55.93%

Q: And the HCT [10]?
A: 39.9% (2×) and 44.4%

Q: And the HGB [10]?
A: 13.4 g/dL and 13.6 g/dL and 15.0 g/dL

Q: And the MCHC [10]?
A: 33.5 g/dL and 34.2 g/dL and 33.8 g/dL

Q: What about the MCV [10] of the same molecule?
A: 69.5 fL and 68.2 fL and 68.7 fL

Q: And the Retic [10]?
A: 0.53% and 0.27% and 0.28%

Q: And the “WBC Differential Counting(%) Baso” value [10]?
A: 0.4% and 0.5% and 0.3%

Q: What about the “WBC Differential Counting(%) Eos” value [10] of the same molecule?
A: 3.1% and 0.8% and 2.3%

Q: And the “WBC Differential Counting(%) Lymph” value [10]?
A: 31.4% and 42.6% and 35.8%

Q: What about the “WBC Differential Counting(%) Mono” value [10] of the same molecule?
A: 3.9% (2×) and 5.9%

Q: And the “WBC Differential Counting(%) Neut” value [10]?
A: 60.7% and 51.8% and 55.3%

Q: What about the HCT [11] of the same molecule?
A: 46.33%

Q: And the HGB [11]?
A: 15.80 g/dL

Q: And the MCH [11]?
A: 23.4 pg

Q: And the MCHC [11]?
A: 34.07 g/dL

Q: And the MCV [11]?
A: 68.6 fL

Q: What about the Retic [11] of the same molecule?
A: 0.31%

Q: What about the “WBC Differential Counting(%) Baso” value [11] of the same molecule?
A: 0.43%

Q: What about the “WBC Differential Counting(%) Eos” value [11] of the same molecule?
A: 4.73%

Q: And the “WBC Differential Counting(%) Lymph” value [11]?
A: 32.17%

Q: And the “WBC Differential Counting(%) Mono” value [11]?
A: 6.07%

Q: And the “WBC Differential Counting(%) Neut” value [11]?
A: 56.33%

Q: And the HCT [12]?
A: 43.1% and 47.6% and 48.3%

Q: And the HGB [12]?
A: 14.4 g/dL and 16.9 g/dL and 16.1 g/dL

Q: And the MCH [12]?
A: 23.3 pg and 24.5 pg and 22.3 pg

Q: And the MCHC [12]?
A: 33.3 g/dL and 35.5 g/dL and 33.4 g/dL

Q: What about the MCV [12] of the same molecule?
A: 70 fL and 69.1 fL and 66.8 fL

Q: What about the Retic [12] of the same molecule?
A: 0.27% and 0.32% and 0.33%

Q: And the “WBC Differential Counting(%) Baso” value [12]?
A: 0.5% and 0.4% (2×)

Q: What about the “WBC Differential Counting(%) Eos” value [12] of the same molecule?
A: 4.0% and 4.4% and 5.8%

Q: And the “WBC Differential Counting(%) Lymph” value [12]?
A: 33.7% and 29.5% and 33.2%

Q: What about the “WBC Differential Counting(%) Mono” value [12] of the same molecule?
A: 5.8% and 6.8% and 5.6%

Q: What about the “WBC Differential Counting(%) Neut” value [12] of the same molecule?
A: 55.7% and 58.6% and 54.7%
